Data taken from patent US9682995B2, “Amino-substituted isothiazoles” (BAYER PHARMA AKTIENGESELLSCHAFT, priority 2013, dated 2017).

Experiments:
human Bub1 = human Bub1 (Homo sapiens (Human), UniProt O43683); assay: Bub1 kinase assay (TR-FRET); type: biochemical; settings: 10 μM ATP; read-out: Bub1 avg (IC50 [mol/l])
Procedure, shortened: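 His6-tagged human Bub1 catalytic domain (aa 704-1085, insect-cell expressed, ~200 ng/ml) preincubated with compound 15 min, then reacted 60 min at 22 °C with 10 μM ATP and 1 μM biotinylated peptide (final) in pH 7.5 Tris buffer. Phosphopeptide detected by TR-FRET 665/620 ratio, normalised to no-inhibitor and no-enzyme controls.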

HeLa = assay: Proliferation assay (crystal violet), HeLa; type: cell-based; settings: Homo sapiens, 96 h, 4 days, read-out: Inhibition of proliferation IC50 HeLa
Procedure, shortened: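 Tumour cells seeded at 1000–5000 cells/well in medium with 10% FCS, dosed after 24 h at 0.001–10 μM (0.5% DMSO final) for 4 days. Cell number read by crystal-violet staining after glutaraldehyde fixation (A595), normalised to zero-point plate (0%) and untreated cells (100%); IC50 from 4-parameter fit.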

HeLa-MaTu-ADR = assay: Proliferation assay (crystal violet), HeLa-MaTu-ADR; type: cell-based; settings: 96 h, 4 days, read-out: Inhibition of proliferation IC50 HeLa-MaTu-ADR
Description: (§1) Cultivated tumor cells (cells were ordered from ATCC, except HeLa-MaTu and HeLa-MaTu-ADR, which were ordered from EPO-GmbH, Berlin) were plated at a density of 1000 to 5000 cells/well, depending on the growth rate of the respective cell line, in a 96-well multititer plate in 200 μL of their respective growth medium supplemented 10% fetal calf serum. After 24 hours, the cells of one plate (zero-point plate) were stained with crystal violet (see below), while the medium of the other plates was replaced by fresh culture medium (200 μl), to which the test substances were added in various concentrations (0 μM, as well as in the range of 0.001-10 μM; the final concentration of the solvent dimethyl sulfoxide was 0.5%). The cells were incubated for 4 days in the presence of test substances. Cell proliferation was determined by staining the cells with crystal violet: the cells were fixed by adding 20 μl/measuring point of an 11% glutaric aldehyde solution for 15 minutes at room temperature. After three washing cycles of the fixed cells with water, the plates were dried at room temperature. The cells were stained by adding 100 μl/measuring point of a 0.1% crystal violet solution (pH 3.0). After three washing cycles of the stained cells with water, the plates were dried at room temperature. The dye was dissolved by adding 100 μl/measuring point of a 10% acetic acid solution. Absorption was determined by photometry at a wavelength of 595 nm. The change of cell number, in percent, was calculated by normalization of the measured values to the absorption values of the zero-point plate (=0%) and the absorption of the untreated (0 μm) cells (=100%). The IC50 values were determined by means of a 4 parameter fit.

NCI-H460 = assay: Proliferation assay (crystal violet), NCI-H460; type: cell-based; settings: Homo sapiens, 96 h; NCI-H460, 4 days; read-out: Inhibition of proliferation IC50 NCI-H460
Description: as §1

DU145 = assay: Proliferation assay (crystal violet), DU145; type: cell-based; settings: Homo sapiens, DU-145, 96 h; DU145, 4 days; read-out: Inhibition of proliferation IC50 DU145
Description: as §1

Caco2 = assay: Proliferation assay (crystal violet), Caco2; type: cell-based; settings: Homo sapiens, Caco-2, 96 h; Caco2, 4 days; read-out: Inhibition of proliferation IC50 Caco2
Description: as §1

B16F10 = assay: Proliferation assay (crystal violet), B16F10; type: cell-based; settings: Mus musculus, B16-F10, 96 h; B16F10, 4 days; read-out: Inhibition of proliferation IC50 B16F10
Description: as §1

[1] = target: 456 kinases (of these 395 non-mutant kinases) (Homo sapiens, UniProt P0C264); assay: Kinase Profiling (KINOMEscan); type: binding; settings: SgK110; 10 μM
[2] = target: 456 kinases (of these 395 non-mutant kinases) (Homo sapiens, UniProt Q05397); assay: Kinase Profiling (KINOMEscan); type: binding; settings: FAK; 10 μM
456 kinases (of these 395 non-mutant kinases) (Homo sapiens, UniProt Q05397), sequence (Q05397 2-1052 limits assumed, change not shown): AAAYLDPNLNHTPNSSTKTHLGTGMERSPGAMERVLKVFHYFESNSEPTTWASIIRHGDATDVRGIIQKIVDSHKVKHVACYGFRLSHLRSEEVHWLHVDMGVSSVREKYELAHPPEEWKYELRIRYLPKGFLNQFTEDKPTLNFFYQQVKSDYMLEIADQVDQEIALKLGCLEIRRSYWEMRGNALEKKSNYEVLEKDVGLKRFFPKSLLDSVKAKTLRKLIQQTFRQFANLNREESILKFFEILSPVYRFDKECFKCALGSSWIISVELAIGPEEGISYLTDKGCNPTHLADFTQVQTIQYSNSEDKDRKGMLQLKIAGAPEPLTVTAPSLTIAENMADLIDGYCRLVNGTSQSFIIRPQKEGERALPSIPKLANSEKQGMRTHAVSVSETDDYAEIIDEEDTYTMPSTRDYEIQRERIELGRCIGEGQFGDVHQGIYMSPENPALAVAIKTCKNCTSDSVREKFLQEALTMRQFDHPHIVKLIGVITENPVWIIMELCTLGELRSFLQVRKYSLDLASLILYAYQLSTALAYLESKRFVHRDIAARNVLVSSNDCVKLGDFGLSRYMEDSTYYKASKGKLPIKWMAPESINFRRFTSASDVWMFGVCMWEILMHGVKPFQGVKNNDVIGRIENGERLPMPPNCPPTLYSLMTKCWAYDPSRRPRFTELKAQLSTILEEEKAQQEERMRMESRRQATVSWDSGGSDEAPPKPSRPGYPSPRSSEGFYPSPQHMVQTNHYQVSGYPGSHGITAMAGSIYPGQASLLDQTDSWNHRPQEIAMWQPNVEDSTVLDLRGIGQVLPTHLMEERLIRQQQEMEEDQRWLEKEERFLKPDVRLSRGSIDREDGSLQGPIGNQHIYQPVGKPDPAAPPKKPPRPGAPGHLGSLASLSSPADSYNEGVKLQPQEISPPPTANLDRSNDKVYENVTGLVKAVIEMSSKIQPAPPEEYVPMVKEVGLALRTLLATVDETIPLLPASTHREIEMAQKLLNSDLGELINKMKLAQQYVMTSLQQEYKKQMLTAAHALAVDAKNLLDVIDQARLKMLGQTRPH

[3] = target: 456 kinases (of these 395 non-mutant kinases) (Homo sapiens, UniProt Q9H4A3); assay: Kinase Profiling (KINOMEscan); type: binding; settings: WNK1; 10 μM
[4] = target: 456 kinases (of these 395 non-mutant kinases) (Homo sapiens, UniProt Q9UM73, C1156Y); assay: Kinase Profiling (KINOMEscan); type: binding; settings: ALK(C1156Y); 10 μM
456 kinases (of these 395 non-mutant kinases) (Homo sapiens, UniProt Q9UM73, C1156Y), sequence (Q9UM73 19-1620 C1156Y limits assumed): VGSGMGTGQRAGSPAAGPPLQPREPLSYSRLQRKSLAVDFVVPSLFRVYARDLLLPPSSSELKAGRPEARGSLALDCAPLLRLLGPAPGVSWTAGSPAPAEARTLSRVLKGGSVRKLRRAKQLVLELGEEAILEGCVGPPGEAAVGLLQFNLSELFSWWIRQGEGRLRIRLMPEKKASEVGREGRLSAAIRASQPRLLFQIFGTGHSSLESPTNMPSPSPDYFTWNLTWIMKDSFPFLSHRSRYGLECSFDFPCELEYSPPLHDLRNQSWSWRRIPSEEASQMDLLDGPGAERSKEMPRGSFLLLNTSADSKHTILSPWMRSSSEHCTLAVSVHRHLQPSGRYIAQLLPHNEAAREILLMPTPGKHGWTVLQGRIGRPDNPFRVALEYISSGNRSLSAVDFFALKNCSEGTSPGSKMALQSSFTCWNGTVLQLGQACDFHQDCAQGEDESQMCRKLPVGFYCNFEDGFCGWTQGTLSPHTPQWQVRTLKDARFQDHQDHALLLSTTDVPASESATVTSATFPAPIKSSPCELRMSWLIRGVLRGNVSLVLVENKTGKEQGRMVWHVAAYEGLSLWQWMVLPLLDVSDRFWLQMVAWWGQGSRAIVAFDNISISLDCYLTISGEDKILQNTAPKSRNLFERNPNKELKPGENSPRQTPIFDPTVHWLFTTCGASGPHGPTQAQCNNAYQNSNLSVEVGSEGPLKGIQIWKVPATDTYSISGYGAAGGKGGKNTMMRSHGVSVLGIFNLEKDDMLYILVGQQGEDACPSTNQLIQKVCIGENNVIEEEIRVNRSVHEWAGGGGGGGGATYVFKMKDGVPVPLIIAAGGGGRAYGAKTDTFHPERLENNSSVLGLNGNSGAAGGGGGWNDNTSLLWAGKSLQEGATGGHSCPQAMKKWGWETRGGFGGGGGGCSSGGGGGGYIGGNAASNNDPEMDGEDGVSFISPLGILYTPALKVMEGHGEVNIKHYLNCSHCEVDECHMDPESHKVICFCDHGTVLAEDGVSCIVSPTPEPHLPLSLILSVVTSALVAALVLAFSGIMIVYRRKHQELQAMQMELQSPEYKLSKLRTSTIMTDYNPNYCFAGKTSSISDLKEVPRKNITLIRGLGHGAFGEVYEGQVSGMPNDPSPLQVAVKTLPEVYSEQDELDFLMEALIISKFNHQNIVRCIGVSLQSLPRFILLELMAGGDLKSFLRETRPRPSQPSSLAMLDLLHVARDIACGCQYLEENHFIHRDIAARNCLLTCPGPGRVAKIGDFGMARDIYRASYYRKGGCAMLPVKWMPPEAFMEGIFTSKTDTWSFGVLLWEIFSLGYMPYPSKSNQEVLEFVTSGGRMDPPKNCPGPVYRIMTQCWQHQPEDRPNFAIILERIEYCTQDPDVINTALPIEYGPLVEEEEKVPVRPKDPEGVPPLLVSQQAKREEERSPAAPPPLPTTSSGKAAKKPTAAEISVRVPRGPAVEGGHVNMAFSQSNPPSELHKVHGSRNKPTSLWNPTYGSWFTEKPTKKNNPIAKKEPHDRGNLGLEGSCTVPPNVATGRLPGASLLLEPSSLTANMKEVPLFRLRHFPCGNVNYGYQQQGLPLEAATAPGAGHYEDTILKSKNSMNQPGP

human Bub1, sequence (O43683 704-1085): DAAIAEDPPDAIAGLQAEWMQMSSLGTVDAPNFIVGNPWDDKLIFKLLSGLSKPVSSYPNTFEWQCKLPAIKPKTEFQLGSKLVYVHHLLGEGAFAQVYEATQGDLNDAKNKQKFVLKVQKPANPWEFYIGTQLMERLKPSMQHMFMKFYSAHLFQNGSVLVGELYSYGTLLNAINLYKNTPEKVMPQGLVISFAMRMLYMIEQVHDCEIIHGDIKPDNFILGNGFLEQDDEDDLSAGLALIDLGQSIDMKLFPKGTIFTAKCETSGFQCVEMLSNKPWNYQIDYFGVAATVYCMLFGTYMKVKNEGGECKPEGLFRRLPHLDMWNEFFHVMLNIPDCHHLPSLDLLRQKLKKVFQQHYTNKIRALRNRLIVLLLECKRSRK

| Compound | IC50 (human Bub1) | IC50 (HeLa) | IC50 (HeLa-MaTu-ADR) | IC50 (NCI-H460) | IC50 (DU145) | IC50 (Caco2) | IC50 (B16F10) | % Ctrl @ 10 μM [1] | % Ctrl @ 10 μM [2] | % Ctrl @ 10 μM [3] | % Ctrl @ 10 μM [4] |
| --- | --- | --- | --- | --- | --- | --- | --- | --- | --- | --- | --- |
| CCc1ccccc1NC(=O)c1c(C)nsc1Nc1nc(C)nc2ccccc12 [Example 35, N-(2-Ethylphenyl)-3-methyl-5-[(2-methylquinazolin-4-yl)amino]-1,2-thiazole-4-carboxamide] | > 20000 nM | 1200 nM | 610 nM | 1600 nM | 2400 nM | 1600 nM | 1700 nM |  |  |  |  |
| CCc1ccccc1NC(=O)c1c(C)nsc1Nc1cnc2cc(F)ccc2n1 [Example 20, N-(2-Ethylphenyl)-5-[(6-fluoroquinoxalin-2-yl)amino]-3-methyl-1,2-thiazole-4-carboxamide] | > 20000 nM | 1100 nM | 500 nM | 440 nM | 600 nM | 550 nM | 530 nM | 100 % Ctrl | 94 % Ctrl | 100 % Ctrl | 100 % Ctrl |
| COc1ccc(NC(=O)c2c(C)nsc2Nc2nc3c(C(F)(F)F)cccc3s2)cc1F [Example 47, N-(3-Fluoro-4-methoxyphenyl)-3-methyl-5-{[4-(trifluoromethyl)-1,3-benzothiazol-2-yl]amino}-1,2-thiazole-4-carboxamide] | > 20000 nM | 370 nM | 83 nM | 180 nM | 49 nM | 360 nM | 110 nM |  |  |  |  |
| CCc1ccccc1NC(=O)c1c(C)nsc1Nc1cnc2ccccc2n1 [Example 19, N-(2-Ethylphenyl)-3-methyl-5-(quinoxalin-2-ylamino)-1,2-thiazole-4-carboxamide] | > 20000 nM | 2500 nM | 410 nM | 1500 nM | 2500 nM | 970 nM | 1800 nM |  |  |  |  |
| COc1ccc(NC(=O)c2c(C)nsc2Nc2cnc3cccc(C)c3n2)cn1 [Example 22, N-(6-methoxypyridin-3-yl)-3-methyl-5-[(8-methylquinoxalin-2-yl)amino]-1,2-thiazole-4-carboxamide] | > 20000 nM | 1300 nM | 760 nM | 790 nM | 2200 nM | 1600 nM | 950 nM |  |  |  |  |
| CCOC(=O)c1cnn2ccc(Nc3snc(C)c3C(=O)Nc3ccc(F)c(F)c3)nc12 [Example 55, Ethyl 5-({4-[(3,4-difluorophenyl)carbamoyl]-3-methyl-1,2-thiazol-5-yl}amino)-pyrazolo[1,5-a]pyrimidine-3-carboxylate] | > 20000 nM | 920 nM | 140 nM | 300 nM | 390 nM | 150 nM | 380 nM |  |  |  |  |
| Cc1nsc(Nc2cnccn2)c1C(=O)Nc1ccc(Cl)c(F)c1 [Example 56, N-(4-Chloro-3-fluorophenyl)-3-methyl-5-(pyrazin-2-ylamino)-1,2-thiazole-4-carboxamide] | > 20000 nM | 790 nM | 370 nM | 370 nM | 540 nM | 560 nM | 470 nM |  |  |  |  |
| COc1ccc(NC(=O)c2c(C)nsc2Nc2cnc3cc(C(F)(F)F)ccc3n2)cn1 [Example 45, N-(6-Methoxypyridin-3-yl)-3-methyl-5-{[6-(trifluoromethyl)quinoxalin-2-yl]amino}-1,2-thiazole-4-carboxamide] | > 20000 nM | 340 nM | 300 nM | 100 nM | 460 nM | 380 nM | 190 nM |  |  |  |  |
| CCc1ccccc1NC(=O)c1c(C)nsc1Nc1cnc2cccc(C)c2n1 [Example 33, N-(2-Ethylphenyl)-3-methyl-5-[(8-methylquinoxalin-2-yl)amino]-1,2-thiazole-4-carboxamide] | > 20000 nM | 2200 nM | 850 nM | 1200 nM | 1300 nM | 740 nM | 1400 nM |  |  |  |  |
| Cc1nsc(Nc2nc3c(C(F)(F)F)cccc3s2)c1C(=O)Nc1ccc(Cl)c(F)c1 [Example 53, N-(4-Chloro-3-fluorophenyl)-3-methyl-5-{[4-(trifluoromethyl)-1,3-benzothiazol-2-yl]amino}-1,2-thiazole-4-carboxamide] | > 20000 nM | 1000 nM | 310 nM | 520 nM | 980 nM | 200 nM | 220 nM |  |  |  |  |

More lines, main results first:

| IC50 (human Bub1) | IC50 (HeLa) | IC50 (HeLa-MaTu-ADR) | IC50 (NCI-H460) | IC50 (DU145) | IC50 (Caco2) | IC50 (B16F10) | Compound | % Ctrl @ 10 μM [1] | % Ctrl @ 10 μM [2] | % Ctrl @ 10 μM [3] | % Ctrl @ 10 μM [4] |
| --- | --- | --- | --- | --- | --- | --- | --- | --- | --- | --- | --- |
| > 20000 nM | 560 nM | 330 nM | 290 nM | 590 nM | 470 nM | 440 nM | Cc1nsc(Nc2cnc3ccccc3n2)c1C(=O)Nc1ccc(Cl)c(F)c1 [Example 40, N-(4-Chloro-3-fluorophenyl)-3-methyl-5-(quinoxalin-2-ylamino)-1,2-thiazole-4-carboxamide] |  |  |  |  |
| > 20000 nM | 1600 nM | 120 nM | 99 nM | 320 nM | 210 nM | 130 nM | Cc1nsc(Nc2ccc(C#N)cn2)c1C(=O)Nc1ccc(F)c(F)c1 [Example 28, 5-[(5-Cyanopyridin-2-yl)amino]-N-(3,4-difluorophenyl)-3-methyl-1,2-thiazole-4-carboxamide] |  |  |  |  |
| > 20000 nM | 130 nM | 110 nM | 86 nM | 180 nM | 110 nM | 120 nM | Cc1nsc(Nc2cnc3cc(F)ccc3n2)c1C(=O)Nc1ccc(F)c(F)c1 [Example 46, N-(3,4-Difluorophenyl)-5-[(6-fluoroquinoxalin-2-yl)amino]-3-methyl-1,2-thiazole-4-carboxamide] |  |  |  |  |
| > 20000 nM | 3200 nM | 1900 nM | 2100 nM | 3000 nM | 2300 nM | 2300 nM | CCc1ccccc1NC(=O)c1c(C)nsc1Nc1ccnc(C#N)n1 [Example 6, 5-[(2-Cyanopyrimidin-4-yl)amino]-N-(2-ethylphenyl)-3-methyl-1,2-thiazole-4-carboxamide] |  |  |  |  |
| > 20000 nM | 450 nM | 210 nM | 520 nM | 410 nM | 270 nM | 300 nM | Cc1nsc(Nc2cnc3ccccc3n2)c1C(=O)Nc1ccc(F)c(F)c1 [Example 50, N-(3,4-Difluorophenyl)-3-methyl-5-(quinoxalin-2-ylamino)-1,2-thiazole-4-carboxamide] |  |  |  |  |
| > 20000 nM | 580 nM | 350 nM | 210 nM | 600 nM | 430 nM | 430 nM | COc1ccc(NC(=O)c2c(C)nsc2Nc2nc3c(C(F)(F)F)cccc3s2)cn1 [Example 48, N-(6-Methoxypyridin-3-yl)-3-methyl-5-{[4-(trifluoromethyl)-1,3-benzothiazol-2-yl]-amino}-1,2-thiazole-4-carboxamide] |  |  |  |  |
